Results: US10370697B2, “Propeptide-luciferase fusion proteins and methods of use thereof” (THE BROAD INSTITUTE, INC., priority 2011, dated 2019)

Columns and labels:
[1] = tested on: MIN6 cells expressing proinsulin-luciferase construct; assay: High-throughput luciferase secretion screen, proinsulin-luciferase reporter, 384-well; format: cell-based, mouse; details: for Z-score / Z-score With Glucose / Z-score Without Glucose: luciferase secretion, 30 μM, 1 hour; for Z-score: 1600 compound screen, Z-score vs DMSO wells; for Z-score / Z-score With Glucose: 100 mg/dL glucose; for Z-score With Glucose / Z-score Without Glucose: repeated 1600-compound screen; for Z-score Without Glucose: absence of glucose
Protocol: MIN6 and INS-1E cells were expanded to 80% confluence in their respective growth media, washed once in PBS and incubated for 1 hour at 37° C. in KRB without glucose. Cells were then dissociated, spun at 300 g×2 minutes, resuspended in fresh KRB without glucose and filtered through 40 μm mesh (Becton Dickenson®). Next, the cells were counted and diluted in KRB to 1×10^6 cells per mL, and glucose was added as required for each experiment. Cells were then seeded in 384-well format, 3×10^4 cells in 30 μL per well, using a Multidrop™ Combi device (Thermo Scientific®, Billerica, Mass.). Compounds from the Pharmakon 1600 Collection (Microsource Discovery Systems™, Gaylordsville, Conn.) were pinned into each well using a CyBio® Vario (CyBio®, Jena, Germany) to a final concentration of 30 μM, and the plates were then incubated for 1 hour at 37° C. The plates were then spun at 300 g×2 minutes and the supernatant transferred to a new 384-well plate. Coelenterazine substrate was then added to a final concentration of 20 μM and luciferase activity determined using a standard plate reader (Biotek®).
For the high-throughput screens, the Z-score of each test compound was calculated using the formula: […]
where x is the log-transformed, signal decay-adjusted luciferase signal from a compound-treated well, μ is the mean of the log-transformed luciferase signals from the DMSO-treated wells on the same plate, and a is the standard deviation of the log-transformed luciferase signals of the DMSO-treated wells across all plates (to allow for cross-plate comparison of compounds). Prior to calculating the Z-score, a row-based correction factor was applied to all luciferase readings to adjust for the rapid signal decay occurring during the course of each 384-well plate read. The signal decay was modeled as a logarithmic function (Microsoft® Excel) and then used to adjust each well's luciferase reading based on the corresponding row within the plate.
We performed a pilot chemical screen at a substimulatory glucose concentration (100 mg/dL) in MIN6 cells using a collection of 1600 known bioactive small molecules, with the sulfonylurea glipizide included as a positive control. […] Several commonly used drugs without known links to beta-cell function caused significant increases in luciferase secretion in our assay (compounds summarized in Table 1).
As there is a well-recognized need for glucose-dependent small-molecule agonists of insulin secretion, we subsequently evaluated whether our assay could be adapted to find such secretagogues. We repeated the 1600-compound screen in the presence and absence of a substimulatory glucose concentration (100 mg/dL).

[2] = tested on: Alpha TC1 mouse alpha cell line; assay: Luciferase secretion, proglucagon-luciferase (G2) reporter in alpha cells; format: cell-based; details: glucose 0-300 mg/dL (0-16.7 mM)
Protocol: The preglucagon G^2 construct was introduced into the Alpha TC1 mouse alpha cell line. Cells were stimulated with IBMX, arginine, or potassium chloride (KCl) and varying amounts of glucose in the range of 0-300 mg/dL (0-16.7 mM). Luciferase activity of the supernatant was determined (FIG. 6).

[3] = tested on: MIN6 mouse beta cell line; assay: Luciferase secretion, preproamylin-Gaussia luciferase (PAG) reporter; format: cell-based; details: 1 hour at the indicated glucose concentrations; 25 uM glipizide, 50 uM IBMX, 20 uM forskolin, 40 mM KCl, 20 uM PMA
Protocol: FIG. 4 is a graph showing the pre-proamylin-luciferase reporter in MIN6 cells responds as predicted to known insulin secretagogues. Cells were treated for 1 hour at the indicated glucose concentrations with either DMSO, 25 uM glipizide, 2.5 uM glucokinase activator (GKA), 50 uM 3-isobutyl-1-methylxanthine (IBMX), 20 uM forskolin, 40 mM potassium chloride (KCl), or 20 uM phorbol myristate acetate (PMA).
For standard secretion assays, MIN6 and INS-1E cells were plated in 96-well format at a density of 4×10^4 cells per well in 100 μL of their respective growth media and incubated overnight at 37° C. in 5% CO2 to allow attachment. Cells were washed once with PBS and incubated for 1 hour at 37° C. in sterile, 0.45 μm-filtered Krebs Ringer Buffer (KRB) containing 138 mM NaCl, 5.4 mM KCl, 2.6 mM MgCl2, 2.6 mM CaCl2, 5 mM NaHCO3, 10 mM HEPES and 5 g/L bovine serum albumin (Sigma®). The cells were then washed in KRB once and stimulated for 1 hour in 100 μL of fresh KRB containing varying amounts of glucose and compounds. The insulin concentration was determined using an insulin ELISA (ALPCO®) with the supplied protocol. Luciferase activity was determined from the same samples by adding the coelenterazine substrate (Nanolight®) to the supernatant to a final concentration of 20 μM and reading on a standard plate reader (Biotek™, Winooski, Vt.).
The preproamlyin constructs was introduced into the MIN6 mouse beta cell line (FIGS. 3A and 3B).

GLUTag mouse L-cell line = assay: Luciferase secretion, proglucagon-luciferase (G2) reporter in L cells; format: cell-based
Protocol: The proglucagon G^2 construct was also introduced into the GLUTag mouse L-cell line. Cells were stimulated with Forskolin/IBMX, KCl, glipizide, PMA, and L-glutamine. Luciferase activity of the supernatant was determined.

| Structure (SMILES) | Z-score [1] | Z-score With Glucose [1] | Z-score Without Glucose [1] | further results |
| --- | --- | --- | --- | --- |
| CN(C)CC[C@@H](c1ccc(Cl)cc1)c1ccccn1 [(S)-chlorpheniramine] | 31.8 |  |  |  |
| COc1c2ccoc2cc2oc(=O)ccc12 [Bergapten] |  | 20.9 | 2.9 |  |
| CCN(CC)CCNC(C(=O)OCCC(C)C)c1ccccc1 (stereo not drawn) [Camylofine] | 23.8 | 4.7 | 0.2 |  |
| COc1ccccc1OCCNCC(O)COc1cccc2[nH]c3ccccc3c12 (stereo not drawn) [Carvedilol] |  |  | 1.5 |  |
| Clc1ccc(Cn2c(CN3CCCC3)nc3ccccc32)cc1 [Clemizole] |  | 12.2 | 0.4 |  |
| CC(=O)[C@@]1(O)CC[C@H]2[C@@H]3CCC4=CC(=O)CC[C@]4(C)[C@H]3CC[C@@]21C [Hydroxyprogesterone] |  | 18.3 | 2.7 | Z-score Δ ([1]; difference of Z-score with and without glucose): 15.6 |
| CC(C)Cn1c(=O)n(C)c(=O)c2[nH]cnc21 [IBMX, 3-isobutyl-1-methylxanthine] |  |  |  | luciferase secretion (luciferase activity of the supernatant) [2]: no secretion of luciferase; luciferase activity (luminescence) [3]: increased luminescence in a dose-dependent manner |
| [Cl-].[K+] [KCl, potassium chloride] |  |  |  | luciferase secretion (luciferase activity of the supernatant) [2]: secreted luciferase; luciferase secretion (luciferase activity of the supernatant) (GLUTag mouse L-cell line): secreted luciferase; luciferase activity (luminescence) [3]: increased luminescence in a dose-dependent manner |
| NC(=O)CC[C@H](N)C(=O)O [L-glutamine] |  |  |  | luciferase secretion (luciferase activity of the supernatant) (GLUTag mouse L-cell line): no secretion of luciferase |
| C[C@@H]1CC(=O)NN=C1c1ccc(NN=C(C#N)C#N)cc1 [Levosimendan] | 40.7 |  |  |  |
| Oc1ccc(OCc2ccccc2)cc1 [Monobenzone] | 38.7 | 31.8 | 5.6 |  |
| CCN(CC)CCOC(=O)C(Cc1cccc2ccccc12)CC1CCCO1 (stereo not drawn) [Nafronyl] | 25.4 | 17.8 | 3.4 |  |
| Cc1ccccc1C(OCCN(C)C)c1ccccc1 (stereo not drawn) [Orphenadrine] | 27.4 |  |  |  |
| CCCCCCCCCCCCCC(=O)O[C@@H]1[C@@H](C)[C@@]2(O)[C@@H](C=C(CO)C[C@]3(O)C(=O)C(C)=C[C@@H]23)[C@@H]2C(C)(C)[C@]12OC(C)=O [PMA, phorbol myristate acetate] |  |  |  | luciferase secretion (luciferase activity of the supernatant) (GLUTag mouse L-cell line): secreted luciferase; luciferase activity (luminescence) [3]: increased luminescence in a dose-dependent manner |
| CCCNCC(O)COc1ccccc1C(=O)CCc1ccccc1 (stereo not drawn) [Propafenone] |  | 10.5 | 1.5 |  |
| O=C(CCCN1CCC2(CC1)C(=O)NCN2c1ccccc1)c1ccc(F)cc1 [Spiperone] |  | 9.0 | −2.8 |  |
| Nc1c2c(nc3ccccc13)CCCC2 [Tacrine] | 38.8 |  |  |  |
| Nc1nc(N)c2nc(-c3ccccc3)c(N)nc2n1 [Triamterene] | 76.3 |  |  |  |
| OC(CCN1CCCCC1)(c1ccccc1)C1CCCCC1 (stereo not drawn) [Trihexyphenidyl] | 50.5 |  |  |  |
| N=C(N)NCCC[C@H](N)C(=O)O [arginine] |  |  |  | luciferase secretion (luciferase activity of the supernatant) [2]: secreted luciferase |
| Cc1cnc(C(=O)NCCc2ccc(S(=O)(=O)NC(=O)NC3CCCCC3)cc2)cn1 [glipizide] |  |  |  | luciferase secretion ([1]; screen in presence and absence of 100 mg/dL glucose): caused luciferase secretion regardless of the ambient glucose level; luciferase secretion (luciferase activity of the supernatant) (GLUTag mouse L-cell line): no secretion of luciferase; luciferase activity (luminescence) [3]: did not increase luciferase activity |
